Measured values taken from ChEMBL document CHEMBL5331122, “Structure-Activity Relationship Study of Antimicrobial Peptide PE2 Delivered Novel Linear Derivatives with Potential of Eradicating Biofilms and Low Incidence of Drug Resistance” (J Med Chem, 2023).
In brackets after ≈: the same amount, converted by molar mass. Activity calls are given as the source filed them. No cut-off for these calls is given here.

Tests used:
[1] = tested on: Staphylococcus aureus; experiment: Antibacterial activity against Staphylococcus aureus ATCC 25923 assessed as bacterial growth inhibition incubated for 18 hrs by broth microdilution method; assay type: functional
[2] = tested on: Bacillus subtilis; experiment: Antibacterial activity against Bacillus subtilis ATCC 23857 assessed as bacterial growth inhibition incubated for 18 hrs by broth microdilution method; assay type: functional
[3] = tested on: Enterococcus faecalis; experiment: Antibacterial activity against Enterococcus faecalis ATCC 29212 assessed as bacterial growth inhibition incubated for 18 hrs by broth microdilution method; assay type: functional
[4] = tested on: Escherichia coli; experiment: Antibacterial activity against Escherichia coli ATCC 25922 assessed as fold increase in MIC in presence of NaCl; assay type: functional
[5] = tested on: Escherichia coli; experiment: Antibacterial activity against Escherichia coli ATCC 25922 assessed as fold increase in MIC in presence of KCl; assay type: functional
[6] = tested on: Escherichia coli; experiment: Antibacterial activity against Escherichia coli ATCC 25922 assessed as fold increase in MIC in presence of MgCl2; assay type: functional
[7] = tested on: Escherichia coli; experiment: Antibacterial activity against Escherichia coli ATCC 25922 assessed as fold increase in MIC in presence of ZnCl2; assay type: functional
[8] = tested on: Staphylococcus aureus; experiment: Antibacterial activity against Staphylococcus aureus ATCC 25923 assessed as fold increase in MIC in presence of KCl; assay type: functional
[9] = tested on: Staphylococcus aureus; experiment: Antibacterial activity against Staphylococcus aureus ATCC 25923 assessed as fold increase in MIC in presence of MgCl2; assay type: functional
[10] = tested on: Staphylococcus aureus; experiment: Antibacterial activity against Staphylococcus aureus ATCC 25923 assessed as fold increase in MIC in presence of ZnCl2; assay type: functional
[11] = tested on: Escherichia coli; experiment: Antibacterial activity against Escherichia coli ATCC 25922 in presence of 10% mouse serum measured for 6 hrs; assay type: functional, organism-based
[12] = tested on: Staphylococcus aureus; experiment: Antibacterial activity against Staphylococcus aureus ATCC 25923 in presence of 10% mouse serum measured for 6 hrs; assay type: functional, organism-based
[13] = tested on: Escherichia coli; experiment: Antimicrobial activity against Escherichia coli ATCC 25922 assessed as reduction in survival bacterial growth in presence of trypsin measured after 6 hrs; assay type: functional, organism-based
[14] = tested on: Escherichia coli; experiment: Antimicrobial activity against Escherichia coli ATCC 25922 assessed as reduction in survival bacterial growth in presence of chymotrypsin measured after 6 hrs; assay type: functional, organism-based
[15] = tested on: Escherichia coli; experiment: Inhibition of biofilm formation in Escherichia coli ATCC 25922 assessed as inhibition of biofilm formation at 1/4 times MIC incubated for 24 hrs by crystal violet staining based analysis; assay type: functional, organism-based
[16] = tested on: Escherichia coli; experiment: Inhibition of biofilm formation in Escherichia coli ATCC 25922 assessed as inhibition of biofilm formation at 1/2 times MIC incubated for 24 hrs by crystal violet staining based analysis; assay type: functional, organism-based
[17] = tested on: Escherichia coli; experiment: Inhibition of biofilm formation in Escherichia coli ATCC 25922 assessed as inhibition of biofilm formation at 1 to 2 times MIC incubated for 24 hrs by crystal violet staining based analysis; assay type: functional, organism-based
[18] = tested on: Staphylococcus aureus; experiment: Inhibition of biofilm formation in Staphylococcus aureus ATCC 25923 assessed as inhibition of biofilm formation at 1/2 times MIC incubated for 24 hrs by crystal violet staining based analysis; assay type: functional, organism-based
[19] = tested on: Staphylococcus aureus; experiment: Inhibition of biofilm formation in Staphylococcus aureus ATCC 25923 assessed as inhibition of biofilm formation at 1 times MIC incubated for 24 hrs by crystal violet staining based analysis; assay type: functional, organism-based
[20] = tested on: Staphylococcus aureus; experiment: Inhibition of biofilm formation in Staphylococcus aureus ATCC 25923 assessed as inhibition of biofilm formation at 2 times MIC incubated for 24 hrs by crystal violet staining based analysis; assay type: functional, organism-based
[21] = tested on: Escherichia coli; experiment: Antibiofilm activity against Escherichia coli ATCC 25922 assessed as biofilm eradication at 1 times MIC incubated for 24 hrs; assay type: functional, organism-based
[22] = tested on: Escherichia coli; experiment: Antibiofilm activity against Escherichia coli ATCC 25922 assessed as biofilm eradication at 2 times MIC incubated for 24 hrs; assay type: functional, organism-based
[23] = tested on: Escherichia coli; experiment: Antibiofilm activity against Escherichia coli ATCC 25922 assessed as biofilm eradication at 4 times MIC incubated for 24 hrs; assay type: functional, organism-based
[24] = tested on: Staphylococcus aureus; experiment: Antibiofilm activity against Staphylococcus aureus ATCC 25923 assessed as biofilm eradication at 1 times MIC incubated for 24 hrs; assay type: functional, organism-based
[25] = tested on: Staphylococcus aureus; experiment: Antibiofilm activity against Staphylococcus aureus ATCC 25923 assessed as biofilm eradication at 2 times MIC incubated for 24 hrs; assay type: functional, organism-based
[26] = tested on: Staphylococcus aureus; experiment: Antibiofilm activity against Staphylococcus aureus ATCC 25923 assessed as biofilm eradication at 4 times MIC incubated for 24 hrs; assay type: functional, organism-based
[27] = tested on: Staphylococcus aureus; experiment: Antibiofilm activity against Staphylococcus aureus ATCC 25923 assessed as biofilm eradication at 8 times MIC incubated for 24 hrs; assay type: functional, organism-based
[28] = tested on: Escherichia coli; experiment: Induction of drug resistance against Escherichia coli ATCC 25922 assessed as fold increase in MIC measured upto 15 passages by sequential passaging method; assay type: functional
[29] = tested on: Staphylococcus aureus; experiment: Induction of drug resistance against Staphylococcus aureus ATCC 25923 measured upto 15 passages by sequential passaging method; assay type: functional
[30] = tested on: Escherichia coli; experiment: Bactericidal activity against Escherichia coli ATCC 25922 assessed as inhibition of bacterial growth incubated upto 360 mins by time-kill assay; assay type: functional, organism-based
[31] = tested on: Escherichia coli; experiment: Bactericidal activity against Escherichia coli ATCC 25922 assessed as inhibition of bacterial growth at 0.5 to 2 times MIC by time-kill assay; assay type: functional, organism-based; conditions: time <= 360.0 min, TDE = time-dependent effect
[32] = tested on: Escherichia coli; experiment: Bactericidal activity against Escherichia coli ATCC 25922 assessed as inhibition of bacterial growth at 2 times MIC measured upto 360 mins by time-kill assay; assay type: functional, organism-based
[33] = tested on: Staphylococcus aureus; experiment: Bactericidal activity against Staphylococcus aureus ATCC 25923 assessed as inhibition of bacterial growth at 0.5 to 2 times MIC by time-kill assay; assay type: functional, organism-based; conditions: time <= 360.0 min, TDE = time-dependent effect
[34] = tested on: Staphylococcus aureus; experiment: Bactericidal activity against Staphylococcus aureus ATCC 25923 assessed as inhibition of bacterial growth at 1/2 times MIC measured upto 360 mins by time-kill assay; assay type: functional, organism-based
[35] = tested on: Staphylococcus aureus; experiment: Bactericidal activity against Staphylococcus aureus ATCC 25923 assessed as inhibition of bacterial growth at 1 times MIC measured upto 360 mins by time-kill assay; assay type: functional, organism-based
[36] = tested on: Cell membrane; experiment: Induction of outer membrane permeabilization in Escherichia coli ATCC 25922 assessed as increase in fluorescence intensity at 1 to 4 times MIC measured for 12 hrs by NPN uptake assay; assay type: subcellular
[37] = tested on: Cell membrane; experiment: Induction of outer membrane permeabilization in Escherichia coli ATCC 25922 assessed as increase in fluorescence intensity at 1 times MIC measured for 12 hrs by NPN uptake assay; assay type: subcellular
[38] = tested on: Cell membrane; experiment: Induction of outer membrane permeabilization in Escherichia coli ATCC 25922 assessed as increase in fluorescence intensity at 4 times MIC measured for 12 hrs by NPN uptake assay; assay type: subcellular
[39] = tested on: Cell membrane; experiment: Induction of cell membrane damage in Escherichia coli ATCC 25922 at 2 times MIC after 0.5 to 2 hrs by propidium iodide staining based flow cytometer assay; assay type: subcellular; conditions: time 0.5-2 hrs
[40] = tested on: Escherichia coli; experiment: Induction of membrane morphological changes in Escherichia coli ATCC 25922 at 4 times MIC measured at 0.5 to 2 hrs by SEM analysis; assay type: functional, organism-based; conditions: time 0.5-2 hrs
[41] = tested on: Staphylococcus aureus; experiment: Induction of membrane morphological changes in Staphylococcus aureus ATCC 25923 at 4 times MIC measured at 0.5 to 2 hrs by SEM analysis; assay type: functional, organism-based; conditions: time 0.5-2 hrs
[42] = tested on: Staphylococcus aureus; experiment: Induction of membrane morphological changes in Staphylococcus aureus ATCC 25923 assessed as appearance of adherent bacterial cells at 4 times MIC measured at 0.5 to 2 hrs by SEM analysis; assay type: functional, organism-based; conditions: time 0.5-2 hrs

CCCCCCCC(=O)N[C@@H](CCN)C(=O)N[C@H](C(=O)N[C@@H](CCN)C(=O)N[C@H](Cc1ccccc1)C(=O)N[C@@H](CC(C)C)C(=O)N[C@@H](CCN)C(=O)N[C@@H](C(=O)N[C@@H](CC(C)C)C(=O)N[C@@H](Cc1ccc(O)cc1)C(N)=O)C(C)C)[C@@H](C)CC
MIC [1]: 8 µg/mL (≈ 6.71 µM)
MIC [2]: 2 µg/mL (≈ 1.68 µM)
MIC [3]: 16 µg/mL (≈ 13.4 µM)
fold change (FC) [4]: <=2
fold change (FC) [5]: <=2
fold change (FC) [6]: <=2
fold change (FC) [7]: <=2
fold change (FC) [8]: <=2
fold change (FC) [9]: <=2
fold change (FC) [10]: <=2
Activity [11]: Active
Activity [12]: Active
Activity [13]: Active
Activity [14]: Active
inhibition [15]: inactive
inhibition [16]: inactive
inhibition [17]: Active
inhibition [18]: Active
inhibition [19]: Active
inhibition [20]: Active
Activity [21]: Active
Activity [22]: Active
Activity [23]: Active
Activity [24]: inactive
Activity [25]: Active
Activity [26]: Active
Activity [27]: Active
fold change (FC) [28]: 64
Activity [29]: Active
Activity [30]: Dose-Dependent Effect
Activity [31]: Tde
Activity [32]: Active
Activity [33]: Tde
Activity [34]: inactive
Activity [35]: inactive
Activity [36]: Active
Activity [37]: inactive
Activity [38]: Active
Activity [39]: Active
Activity [40]: Active
Activity [41]: Active
Activity [42]: Active

CCCCCCC(=O)N[C@@H](CCN)C(=O)N[C@H](C(=O)N[C@@H](CCN)C(=O)N[C@H](Cc1ccccc1)C(=O)N[C@@H](CC(C)C)C(=O)N[C@@H](CCN)C(=O)N[C@@H](C(=O)N[C@@H](CC(C)C)C(=O)N[C@@H](Cc1ccc(O)cc1)C(N)=O)C(C)C)[C@@H](C)CC
MIC [1]: 8 µg/mL (≈ 6.79 µM)
MIC [2]: 2 µg/mL (≈ 1.7 µM)
MIC [3]: 64 µg/mL (≈ 54.3 µM)
fold change (FC) [4]: <=2
fold change (FC) [5]: <=2
fold change (FC) [6]: <=2
fold change (FC) [7]: <=2
fold change (FC) [8]: <=2
fold change (FC) [9]: <=2
fold change (FC) [10]: <=2
Activity [11]: Active
Activity [12]: Active
Activity [13]: Active
Activity [14]: Active
inhibition [15]: Active
inhibition [16]: Active
inhibition [17]: Active
inhibition [18]: Active
inhibition [19]: inactive
inhibition [20]: Active
Activity [21]: inactive
Activity [22]: Active
Activity [23]: Active
Activity [24]: inactive
Activity [25]: Active
Activity [26]: Active
Activity [27]: Active
fold change (FC) [28]: 64
Activity [29]: Active
Activity [30]: Dose-Dependent Effect
Activity [31]: Tde
Activity [32]: Active
Activity [33]: Tde
Activity [34]: inactive
Activity [35]: inactive
Activity [36]: Active
Activity [37]: Active
Activity [38]: Active
Activity [39]: Active
Activity [40]: Active
Activity [41]: Active
Activity [42]: Active

CC[C@H](C)[C@@H]1NC(=O)[C@H](CCN)NC(=O)C[C@@H](C(C)C)OC(=O)[C@H]([C@@H](C)O)NC(=O)[C@H](CC(C)C)NC(=O)[C@@H](C(C)C)NC(=O)[C@H](CCN)NC(=O)[C@H](CC(C)C)NC(=O)[C@@H](Cc2ccccc2)NC(=O)[C@H](CCN)NC1=O
MIC [1]: 8 µg/mL (≈ 7.26 µM)
MIC [2]: 4 µg/mL (≈ 3.63 µM)
MIC [3]: 16 µg/mL (≈ 14.5 µM)
fold change (FC) [4]: <=2
fold change (FC) [5]: <=2
fold change (FC) [6]: <=2
fold change (FC) [7]: <=2
fold change (FC) [8]: <=2
fold change (FC) [9]: <=2
fold change (FC) [10]: <=2
Activity [11]: Active
Activity [12]: Active
Activity [13]: Active
Activity [14]: Active
inhibition [15]: inactive
inhibition [16]: Active
inhibition [17]: Active
inhibition [18]: Active
inhibition [19]: Active
inhibition [20]: Active
Activity [21]: inactive
Activity [22]: Active
Activity [23]: Active
Activity [24]: inactive
Activity [25]: Active
Activity [26]: Active
Activity [27]: Active
fold change (FC) [28]: 64
Activity [29]: Active
Activity [30]: Dose-Dependent Effect
Activity [31]: Tde
Activity [32]: Active
Activity [33]: Tde
Activity [34]: inactive
Activity [35]: inactive
Activity [36]: Active
Activity [37]: Active
Activity [38]: Active
Activity [39]: Active
Activity [40]: Active
Activity [41]: Active
Activity [42]: Active
